# Measurements taken from BindingDB's records for doi:10.1016/j.ejmech.2020.112422 (China Medical University, 2020).
# What was measured:
# [1] = Inhibition of ABCB1 in FLp-In-293 cells assessed as potentiation of vincristine-induced cytotoxicity by measuring vincristine IC50 at 5 uM measured after 72 hrs by SRB assay (Rvb = 6 +/- 0.2 nM)
# [2] = Inhibition of ABCB1 in FLp-In-293 cells assessed as potentiation of doxorubicin-induced cytotoxicity by measuring doxorubicin IC50 at 5 uM measured after 72 hrs by SRB assay (Rvb = 80 +/- 10 nM)
# [3] = Inhibition of ABCB1 in FLp-In-293 cells assessed as potentiation of vincristine-induced cytotoxicity by measuring vincristine IC50 at 2.5 uM measured after 72 hrs by SRB assay (Rvb = 6 +/- 0.2 nM)
# [4] = Inhibition of ABCB1 in FLp-In-293 cells assessed as potentiation of paclitaxel-induced cytotoxicity by measuring paclitaxel IC50 at 5 uM measured after 72 hrs by SRB assay (Rvb = 11.8 +/- 1.13 nM)
# [5] = Inhibition of ABCB1 in FLp-In-293 cells assessed as potentiation of doxorubicin-induced cytotoxicity by measuring doxorubicin IC50 at 2.5 uM measured after 72 hrs by SRB assay (Rvb = 80 +/- 10 nM)
# [6] = Inhibition of ABCB1 in human KB-VIN cells assessed as potentiation of paclitaxel-induced cytotoxicity by measuring paclitaxel IC50 at 5 uM measured after 72 hrs by SRB assay (Rvb = 1762 +/- 63 nM)
# [7] = Inhibition of ABCB1 in human HeLa S3 cells assessed as potentiation of doxorubicin-induced cytotoxicity by measuring doxorubicin IC50 at 5 uM measured after 72 hrs by SRB assay (Rvb = 242 +/- 5 nM)
# [8] = Inhibition of ABCB1 in FLp-In-293 cells assessed as potentiation of paclitaxel-induced cytotoxicity by measuring paclitaxel IC50 at 2.5 uM measured after 72 hrs by SRB assay (Rvb = 11.8 +/- 1.13 nM)
# [9] = Inhibition of ABCB1 in human KB-VIN cells assessed as potentiation of paclitaxel-induced cytotoxicity by measuring paclitaxel IC50 at 2.5 uM measured after 72 hrs by SRB assay (Rvb = 1762 +/- 63 nM)
# [10] = Inhibition of ABCB1 in human KB-VIN cells assessed as potentiation of doxorubicin-induced cytotoxicity by measuring doxorubicin IC50 at 5 uM measured after 72 hrs by SRB assay (Rvb = 4736 +/- 59 nM)
# [11] = Inhibition of ABCB1 in human HeLa S3 cells assessed as potentiation of paclitaxel-induced cytotoxicity by measuring paclitaxel IC50 at 5 uM measured after 72 hrs by SRB assay (Rvb = 26.50 +/- 4.1 nM)
# [12] = Inhibition of ABCB1 in human HeLa S3 cells assessed as potentiation of doxorubicin-induced cytotoxicity by measuring doxorubicin IC50 at 2.5 uM measured after 72 hrs by SRB assay (Rvb = 242 +/- 5 nM)
# [13] = Inhibition of ABCB1 in human KB-VIN cells assessed as potentiation of vincristine-induced cytotoxicity by measuring vincristine IC50 at 5 uM measured after 72 hrs by SRB assay (Rvb = 2867 +/- 142 nM)
# [14] = Inhibition of ABCB1 in human HeLa S3 cells assessed as potentiation of vincristine-induced cytotoxicity by measuring vincristine IC50 at 5 uM measured after 72 hrs by SRB assay (Rvb = 4.55 +/- 0.28 nM)
# [15] = Inhibition of ABCB1 in human HeLa S3 cells assessed as potentiation of paclitaxel-induced cytotoxicity by measuring paclitaxel IC50 at 2.5 uM measured after 72 hrs by SRB assay (Rvb = 26.50 +/- 4.1 nM)
# [16] = Inhibition of ABCB1 in human KB-VIN cells assessed as potentiation of vincristine-induced cytotoxicity by measuring vincristine IC50 at 2.5 uM measured after 72 hrs by SRB assay (Rvb = 2867 +/- 142 nM)
# [17] = Inhibition of ABCB1 in human HeLa S3 cells assessed as potentiation of vincristine-induced cytotoxicity by measuring vincristine IC50 at 2.5 uM measured after 72 hrs by SRB assay (Rvb = 4.55 +/- 0.28 nM)
# [18] = Inhibition of human full-length ABCB1 expressed in FLp-In-293 cells assessed as potentiation of paclitaxel-induced cytotoxicity by measuring paclitaxel IC50 at 5 uM measured after 72 hrs by SRB assay (Rvb = 797 +/- 73 nM)
# [19] = Inhibition of human full-length ABCB1 expressed in FLp-In-293 cells assessed as potentiation of vincristine-induced cytotoxicity by measuring vincristine IC50 at 5 uM measured after 72 hrs by SRB assay (Rvb = 823 +/- 16 nM)
# [20] = Inhibition of human full-length ABCB1 expressed in FLp-In-293 cells assessed as potentiation of paclitaxel-induced cytotoxicity by measuring paclitaxel IC50 at 2.5 uM measured after 72 hrs by SRB assay (Rvb = 797 +/- 73 nM)
# [21] = Inhibition of human full-length ABCB1 expressed in FLp-In-293 cells assessed as potentiation of vincristine-induced cytotoxicity by measuring vincristine IC50 at 2.5 uM measured after 72 hrs by SRB assay (Rvb = 823 +/- 16 nM)
# [22] = Inhibition of human full-length ABCB1 expressed in FLp-In-293 cells assessed as potentiation of doxorubicin-induced cytotoxicity by measuring doxorubicin IC50 at 5 uM measured after 72 hrs by SRB assay (Rvb = 2264 +/- 196 nM)
# [23] = Inhibition of human full-length ABCB1 expressed in FLp-In-293 cells assessed as potentiation of doxorubicin-induced cytotoxicity by measuring doxorubicin IC50 at 2.5 uM measured after 72 hrs by SRB assay (Rvb = 2264 +/- 196 nM)
# [24] = Inhibition of ABCB1 in human KB-VIN cells assessed as potentiation of doxorubicin-induced cytotoxicity by measuring doxorubicin IC50 at 2.5 uM measured after 72 hrs by SRB assay (Rvb = 4736 +/- 59 nM)
SMILES,IC50 [1] [nM],IC50 [2] [nM],IC50 [3] [nM],IC50 [4] [nM],IC50 [5] [nM],IC50 [6] [nM],IC50 [7] [nM],IC50 [8] [nM],IC50 [9] [nM],IC50 [10] [nM],IC50 [11] [nM],IC50 [12] [nM],IC50 [13] [nM],IC50 [14] [nM],IC50 [15] [nM],IC50 [16] [nM],IC50 [17] [nM],IC50 [18] [nM],IC50 [19] [nM],IC50 [20] [nM],further results
COc1ccc(-c2cc(OC(C)=O)c3c(-c4cccs4)c(NC(=O)c4ccccc4Cl)oc3c2)cc1,0.82,73,0.88,6.3,77,21,86,6.4,80,102,8.8,111,7.6,2.2,9.6,37,3.9,91,9.2,602,IC50 [21]: 114 nM; IC50 [22]: 502 nM; IC50 [23]: 564 nM
COc1ccc(-c2cc(OC(C)=O)c3c(-c4cccs4)c(NC(=O)c4cccc(F)c4)oc3c2)cc1,3.7,82,6.3,5.3,81,48,87,6.6,116,1400,11,93,12,4.7,12,60,5.4,77,25,621,IC50 [24]: 2210 nM; IC50 [21]: 96 nM; IC50 [22]: 504 nM; IC50 [23]: 559 nM
COc1ccc(-c2cc(OC(C)=O)c3c(-c4cccs4)c(N(C(C)=O)C(C)=O)oc3c2)cc1,4,82,4.5,10,87,597,102,11,652,1500,14,105,314,5.2,14,501,5.7,645,582,647,IC50 [24]: 1740 nM; IC50 [21]: 663 nM; IC50 [22]: 677 nM; IC50 [23]: 874 nM
COc1ccc(-c2cc(OC(C)=O)c3c(-c4cccs4)c(NC(=O)c4ccccc4C)oc3c2)cc1,0.83,82,0.88,7.2,89,46,103,9.1,345,397,8.9,116,6.5,3.7,11,36,5.1,55,8.9,109,IC50 [24]: 1550 nM; IC50 [21]: 84 nM; IC50 [22]: 478 nM; IC50 [23]: 525 nM
